In PubChem BioAssay (NCI) one finds TGI data, which are given here for 14 compounds.

Among the test systems are SNB-78 CNS; M19-MEL melanoma; DLD-1 colon; HOP-18 NSCLC; DMS 273 small cell lung; KM20L2 colon; RXF-631 renal; XF 498 CNS.
Assay in all cases: NCI-60 cell line screen, 48 h

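Where inhibition never reached the appropriate level, the endpoint shown equals the highest concentration tested. Otherwise, values were interpolated linearly from a five-concentration, 48-hour dose response in 96-well plates. TGI: concentration producing complete growth inhibition.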

Consider `O=S1(=O)NNC(=NCc2ccc(Cl)c(Cl)c2)c2ccccc21`, for which the TGI in the experiment on SNB-78 CNS, in the experiment on M19-MEL melanoma, with DLD-1 colon, in the experiment with HOP-18 NSCLC, in the experiment on DMS 273 small cell lung and in the experiment on KM20L2 colon was more than 100 µM each time.
Regarding `O=C(C/C(=N\NC(=O)C[n+]1ccccc1)C(=O)Nc1nc2ccc([N+](=O)[O-])cc2s1)CC(c1ccccc1)c1c(O)c2ccccc2oc1=O` (stereo unspecified), the TGI in the experiment on M19-MEL melanoma, in the experiment on DLD-1 colon and in the experiment on KM20L2 colon was more than 100 µM in each case.
For `CC12CCC([C@H](N3CCOCC3)/C1=N\OCCN1CCCC1)C2(C)C` (stereo partly specified), the TGI in the experiment on SNB-78 CNS, in the experiment with M19-MEL melanoma, in the experiment on DLD-1 colon, in the experiment with HOP-18 NSCLC, in the experiment on DMS 273 small cell lung and in the experiment with RXF-631 renal was more than 100 µM throughout. The TGI in the experiment on KM20L2 colon was more than 100 µM.
Take `COc1ccc(-c2cnoc2-c2ccc(OC)c(OC)c2)cc1OC`: the TGI with SNB-78 CNS is more than 26.8 µM; in the experiment with M19-MEL melanoma, 11.3 µM; in the experiment on DLD-1 colon it was more than 63.7 µM; with HOP-18 NSCLC, more than 59.5 µM; in the experiment with DMS 273 small cell lung it was 2.02 µM; in the experiment on XF 498 CNS, 9.99 µM. Also, the TGI in the experiment on KM20L2 colon is more than 22.4 µM.
For `C=C[C@@]1(C)CCC2(O)C(CCC3C2(C)CCC[C@@]3(C)COC(=O)CC(=O)OC)C1` (stereo partly specified), the TGI turned out to be 68.9 µM in the experiment with SNB-78 CNS; 32.1 µM with DLD-1 colon; 40.6 µM in the experiment with XF 498 CNS; 38.2 µM in the experiment on RXF-631 renal; 33.6 µM in the experiment on KM20L2 colon.
For `O=C(O)c1c[nH]c2c(=O)[nH]cnc12`, the TGI in the experiment on SNB-78 CNS, in the experiment on M19-MEL melanoma, in the experiment with DLD-1 colon, in the experiment with HOP-18 NSCLC and in the experiment on RXF-631 renal was more than 100 µM in each case.
As for `CNC(C)Cc1ccccc1O` (stereo unspecified), the TGI with SNB-78 CNS, in the experiment with DLD-1 colon, in the experiment with HOP-18 NSCLC, with DMS 273 small cell lung and with KM20L2 colon was more than 100 µM each time.
As to `O=C1CSC(/C(=C/c2ccccc2)c2nc3ccccc3[nH]2)=N1`, the TGI with SNB-78 CNS, with M19-MEL melanoma, in the experiment on DLD-1 colon, in the experiment with XF 498 CNS and in the experiment with KM20L2 colon was more than 100 µM each time.
On to `C=CCC1C(=O)C(C(=O)OC)N2CCc3c([nH]c4ccccc34)C12` (stereo unspecified), for which the TGI in the experiment with M19-MEL melanoma, with DLD-1 colon and with KM20L2 colon was more than 100 µM in each case.
As for `COC(=O)C1CC(=O)CCC1c1ccccc1` (stereo unspecified), the TGI in the experiment on SNB-78 CNS, in the experiment on M19-MEL melanoma, in the experiment on DLD-1 colon, in the experiment on HOP-18 NSCLC, in the experiment with DMS 273 small cell lung and in the experiment on KM20L2 colon was more than 100 µM throughout.
Turning to `C#CCSc1nc(N)c2ncn(C3OC(CO)C(O)C3O)c2n1` (stereo unspecified), the TGI in the experiment on SNB-78 CNS, in the experiment on M19-MEL melanoma, in the experiment on DLD-1 colon, in the experiment on DMS 273 small cell lung and with XF 498 CNS was more than 100 µM in each case.
Regarding `O=C(CC(=O)C(=O)Nc1ccccc1)CC(c1ccccc1)c1c(O)c2ccccc2oc1=O` (stereo unspecified), the TGI with M19-MEL melanoma, with DLD-1 colon, in the experiment with HOP-18 NSCLC, in the experiment with DMS 273 small cell lung, in the experiment on RXF-631 renal and in the experiment on KM20L2 colon was more than 100 µM in each case.
For `CCCCCCCC(=O)OC[C@@H](C[As](=O)(O)O)OC(=O)CCCCCCC`, the TGI stood at 30.8 µM with SNB-78 CNS; 31 µM in the experiment on M19-MEL melanoma; 27.5 µM with DLD-1 colon; 44.1 µM in the experiment with HOP-18 NSCLC; 26.1 µM in the experiment on DMS 273 small cell lung; 31.2 µM with KM20L2 colon.
Consider `CC1=CCC2(C#N)CCC1C2O` (stereo unspecified), for which the TGI in the experiment on SNB-78 CNS, with M19-MEL melanoma, with DLD-1 colon, in the experiment with HOP-18 NSCLC, in the experiment on DMS 273 small cell lung and in the experiment with XF 498 CNS was more than 100 µM throughout. Besides, in the experiment with KM20L2 colon, the TGI is more than 100 µM.
